{"source": "patent US20100267561A1", "about": "“HERBICIDAL PYRIDAZINONE DERIVATIVES” (priority 2007, published 2010)", "assay_type_in_all_cases": "in vivo", "key": {"[1]": {"system": "Italian ryegrass (Lolium multiflorum)", "test": "Test B pre-/postemergence plant response", "conditions": "for Ryegrass, Italian plant response rating: 8 g ai/ha", "how_it_was_run": "(§1)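 Seeds were sown and sprayed preemergence, while plants at 2 to 18 cm (1- to 4-leaf stage) got postemergence sprays. Compounds were formulated in a non-phytotoxic solvent mixture with surfactant. After 13 to 15 days in a greenhouse, injury was rated visually against untreated controls, 0 (no effect) to 100 (complete control).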"}, "[2]": {"system": "Russian thistle (Salsola iberica)", "test": "Test B pre-/postemergence plant response", "conditions": "Preemergence; for Plant response rating, Russian Thistle: scale 0 to 100 (0 no effect, 100 complete control)", "how_it_was_run": "as §1"}, "[3]": {"system": "bermudagrass (Cynodon dactylon)", "test": "Test B pre-/postemergence plant response", "conditions": "for Bermudagrass plant response rating: 8 g ai/ha", "how_it_was_run": "as §1"}, "[4]": {"system": "cocklebur (Xanthium strumarium)", "test": "Test B pre-/postemergence plant response", "conditions": "for Cocklebur plant response rating: 8 g ai/ha", "how_it_was_run": "as §1"}, "[5]": {"system": "corn (Zea mays)", "test": "Test B pre-/postemergence plant response", "conditions": "for Corn plant response rating: 8 g ai/ha", "how_it_was_run": "as §1"}, "[6]": {"system": "downy bromegrass (Bromus tectorum)", "test": "Test B pre-/postemergence plant response", "conditions": "for Bromegrass, Downy plant response rating: 8 g ai/ha", "how_it_was_run": "as §1"}, "[7]": {"system": "giant foxtail (Setaria faberii)", "test": "Test B pre-/postemergence plant response", "conditions": "for Foxtail, Giant plant response rating: 8 g ai/ha", "how_it_was_run": "as §1"}, "[8]": {"system": "velvetleaf (Abutilon theophrasti)", "test": "Test B pre-/postemergence plant response", "conditions": "for Velvetleaf plant response rating: 8 g ai/ha", "how_it_was_run": "as §1"}, "[9]": {"system": "woolly cupgrass (Eriochloa villosa)", "test": "Test B pre-/postemergence plant response", "conditions": "for Cupgrass, Woolly plant response rating: 8 g ai/ha", "how_it_was_run": "as §1"}, "[10]": {"system": "yellow nutsedge (Cyperus esculentus)", "test": "Test B pre-/postemergence plant response", "conditions": "for Nutsedge, Yellow plant response rating: 8 g ai/ha", "how_it_was_run": "as §1"}, "[11]": {"system": "barnyardgrass (Echinochloa crus-galli)", "test": "Test B flooded paddy test plant response", "how_it_was_run": "(§2)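 2-leaf plants; pots flooded 3 cm above soil; compound added to paddy water; depth maintained. Greenhouse 13–15 d. Visual rating vs controls, 0 (no effect) to 100 (complete control); dash = no result.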"}, "[12]": {"system": "ducksalad (Heteranthera limosa)", "test": "Test B flooded paddy test plant response", "how_it_was_run": "as §2"}, "[13]": {"system": "rice (Oryza sativa)", "test": "Test B flooded paddy test plant response", "how_it_was_run": "as §2"}, "[14]": {"system": "umbrella sedge (Cyperus difformis)", "test": "Test B flooded paddy test plant response", "how_it_was_run": "as §2"}, "[15]": {"conditions": "Postemergence, 16 g ai/ha, scale 0 to 100"}, "[16]": {"conditions": "Postemergence, 31 g ai/ha, scale 0 to 100"}, "[17]": {"conditions": "Postemergence, 62 g ai/ha, scale 0 to 100, 0 no effect, 100 complete control"}, "[18]": {"conditions": "Preemergence, 16 g ai/ha, scale 0 to 100 (0 no effect, 100 complete control)"}, "[19]": {"conditions": "Preemergence, 31 g ai/ha, scale 0 to 100 (0 no effect, 100 complete control)"}, "[20]": {"conditions": "Preemergence, 62 g ai/ha, scale 0 to 100"}, "[21]": {"conditions": "Preemergence, 31 g ai/ha, 0 to 100 scale, 0 no effect, 100 complete control"}, "[22]": {"conditions": "Flood (flooded paddy test), 62 g ai/ha, scale 0 to 100, 0 no effect, 100 complete control"}, "[23]": {"conditions": "Flood (flooded paddy test), 125 g ai/ha, scale 0 to 100, 0 no effect, 100 complete control"}, "[24]": {"conditions": "Flood (flooded paddy test), 250 g ai/ha, scale 0 to 100, 0 no effect, 100 complete control"}, "[25]": {"conditions": "Flood, 31 g ai/ha, scale 0 to 100"}}, "data": [{"molecule": "Cn1ncc(O)c(-n2nc(-c3ccc(Cl)cc3)cc2C2CC2)c1=O", "note": "[Compound 45]", "values": [{"measurement": "Ryegrass, Italian plant response rating", "setting": "[1]; postemergence, 0-100 scale", "value": 70}, {"measurement": "Plant response rating, Ryegrass, Italian", "setting": "[1]; [15]", "value": 90}, {"measurement": "Plant response rating, Ryegrass, Italian", "setting": "[1]; [16]", "value": 100}, {"measurement": "Plant response rating, Ryegrass, Italian", "setting": "[1]; [17]", "value": 100}, {"measurement": "Plant response rating, Ryegrass, Italian", "setting": "[1]; [18]", "value": 90}, {"measurement": "Plant response rating, Ryegrass, Italian", "setting": "[1]; [19]", "value": 100}, {"measurement": "Plant response rating, Ryegrass, Italian", "setting": "[1]; [20]", "value": 100}, {"measurement": "Ryegrass, Italian plant response rating", "setting": "[1]; Preemergence, scale 0 to 100", "value": 0}, {"measurement": "Plant response rating, Russian Thistle", "setting": "[2]; 16 g ai/ha", "value": 0}, {"measurement": "Plant response rating, Russian Thistle", "setting": "[2]; 31 g ai/ha", "value": 0}, {"measurement": "Russian Thistle plant response rating", "setting": "[2]; 8 g ai/ha, scale 0 to 100", "value": 0}, {"measurement": "Bermudagrass plant response rating", "setting": "[3]; postemergence, 0-100 scale", "value": 60}, {"measurement": "Plant response rating, Bermudagrass", "setting": "[3]; [15]", "value": 95}, {"measurement": "Plant response rating, Bermudagrass", "setting": "[3]; [16]", "value": 98}, {"measurement": "Plant response rating, Bermudagrass", "setting": "[3]; [17]", "value": 98}, {"measurement": "Bermudagrass plant response rating", "setting": "[3]; Preemergence, scale 0 to 100 (0 no effect, 100 complete control)", "value": 0}, {"measurement": "Plant response rating, Bermudagrass", "setting": "[3]; [18]", "value": 0}, {"measurement": "Plant response rating, Bermudagrass", "setting": "[3]; [21]", "value": 0}, {"measurement": "Plant response rating, Bermudagrass", "setting": "[3]; [20]", "value": 0}, {"measurement": "Cocklebur plant response rating", "setting": "[4]; postemergence, 0-100 scale", "value": 0}, {"measurement": "Plant response rating, Cocklebur", "setting": "[4]; [15]", "value": 0}, {"measurement": "Plant response rating, Cocklebur", "setting": "[4]; [16]", "value": 0}, {"measurement": "Plant response rating, Cocklebur", "setting": "[4]; [17]", "value": 0}, {"measurement": "Plant response rating, Cocklebur", "setting": "[4]; [18]", "value": 0}, {"measurement": "Plant response rating, Cocklebur", "setting": "[4]; [21]", "value": 0}, {"measurement": "Plant response rating, Cocklebur", "setting": "[4]; [20]", "value": 0}, {"measurement": "Cocklebur plant response rating", "setting": "[4]; Preemergence, scale 0 to 100", "value": 0}, {"measurement": "Corn plant response rating", "setting": "[5]; postemergence, 0-100 scale", "value": 85}, {"measurement": "Plant response rating, Corn", "setting": "[5]; [15]", "value": 90}, {"measurement": "Plant response rating, Corn", "setting": "[5]; [16]", "value": 95}, {"measurement": "Plant response rating, Corn", "setting": "[5]; [17]", "value": 95}, {"measurement": "Plant response rating, Corn", "setting": "[5]; [18]", "value": 55}, {"measurement": "Plant response rating, Corn", "setting": "[5]; [21]", "value": 65}, {"measurement": "Plant response rating, Corn", "setting": "[5]; [20]", "value": 98}, {"measurement": "Corn plant response rating", "setting": "[5]; Preemergence, scale 0 to 100", "value": 0}, {"measurement": "Bromegrass, Downy plant response rating", "setting": "[6]; postemergence, 0-100 scale", "value": 30}, {"measurement": "Plant response rating, Bromegrass, Downy", "setting": "[6]; [15]", "value": 60}, {"measurement": "Plant response rating, Bromegrass, Downy", "setting": "[6]; [16]", "value": 90}, {"measurement": "Plant response rating, Bromegrass, Downy", "setting": "[6]; [17]", "value": 90}, {"measurement": "Plant response rating, Bromegrass, Downy", "setting": "[6]; [18]", "value": 50}, {"measurement": "Plant response rating, Bromegrass, Downy", "setting": "[6]; [21]", "value": 80}, {"measurement": "Plant response rating, Bromegrass, Downy", "setting": "[6]; [20]", "value": 90}, {"measurement": "Bromegrass, Downy plant response rating", "setting": "[6]; Preemergence, scale 0 to 100", "value": 0}, {"measurement": "Foxtail, Giant plant response rating", "setting": "[7]; postemergence, 0-100 scale", "value": 90}, {"measurement": "Plant response rating, Foxtail, Giant", "setting": "[7]; [15]", "value": 98}, {"measurement": "Plant response rating, Foxtail, Giant", "setting": "[7]; [16]", "value": 100}, {"measurement": "Plant response rating, Foxtail, Giant", "setting": "[7]; [17]", "value": 100}, {"measurement": "Plant response rating, Foxtail, Giant", "setting": "[7]; [18]", "value": 0}, {"measurement": "Plant response rating, Foxtail, Giant", "setting": "[7]; [21]", "value": 35}, {"measurement": "Plant response rating, Foxtail, Giant", "setting": "[7]; [20]", "value": 45}, {"measurement": "Foxtail, Giant plant response rating", "setting": "[7]; Preemergence, scale 0 to 100", "value": 0}, {"measurement": "Velvetleaf plant response rating", "setting": "[8]; postemergence, 0-100 scale", "value": 0}, {"measurement": "Plant response rating, Velvetleaf", "setting": "[8]; [15]", "value": 0}, {"measurement": "Plant response rating, Velvetleaf", "setting": "[8]; [16]", "value": 0}, {"measurement": "Plant response rating, Velvetleaf", "setting": "[8]; [17]", "value": 0}, {"measurement": "Plant response rating, Velvetleaf", "setting": "[8]; [18]", "value": 0}, {"measurement": "Plant response rating, Velvetleaf", "setting": "[8]; [19]", "value": 0}, {"measurement": "Plant response rating, Velvetleaf", "setting": "[8]; Preemergence, 62 g ai/ha, 0 to 100 scale, 0 no effect, 100 complete control", "value": 0}, {"measurement": "Velvetleaf plant response rating", "setting": "[8]; Preemergence, scale 0 to 100", "value": 0}, {"measurement": "Cupgrass, Woolly plant response rating", "setting": "[9]; postemergence, 0-100 scale", "value": 85}, {"measurement": "Plant response rating, Cupgrass, Woolly", "setting": "[9]; [15]", "value": 95}, {"measurement": "Plant response rating, Cupgrass, Woolly", "setting": "[9]; [16]", "value": 100}, {"measurement": "Plant response rating, Cupgrass, Woolly", "setting": "[9]; [17]", "value": 100}, {"measurement": "Plant response rating, Cupgrass, Woolly", "setting": "[9]; [18]", "value": 0}, {"measurement": "Plant response rating, Cupgrass, Woolly", "setting": "[9]; [20]", "value": 0}, {"measurement": "Cupgrass, Woolly plant response rating", "setting": "[9]; Preemergence, scale 0 to 100", "value": 0}, {"measurement": "Nutsedge, Yellow plant response rating", "setting": "[10]; postemergence, 0-100 scale", "value": 0}, {"measurement": "Plant response rating, Nutsedge, Yellow", "setting": "[10]; [15]", "value": 0}, {"measurement": "Plant response rating, Nutsedge, Yellow", "setting": "[10]; [16]", "value": 0}, {"measurement": "Plant response rating, Nutsedge, Yellow", "setting": "[10]; [17]", "value": 0}, {"measurement": "Plant response rating, Nutsedge, Yellow", "setting": "[10]; [18]", "value": 0}, {"measurement": "Plant response rating, Nutsedge, Yellow", "setting": "[10]; [19]", "value": 0}, {"measurement": "Plant response rating, Nutsedge, Yellow", "setting": "[10]; [20]", "value": 0}, {"measurement": "Nutsedge, Yellow plant response rating", "setting": "[10]; Preemergence, scale 0 to 100", "value": 0}, {"measurement": "Plant response rating, Barnyardgrass", "setting": "[11]; [22]", "value": 20}, {"measurement": "Plant response rating, Barnyardgrass", "setting": "[11]; [23]", "value": 60}, {"measurement": "Plant response rating, Barnyardgrass", "setting": "[11]; [24]", "value": 65}, {"measurement": "Plant response rating, Barnyardgrass", "setting": "[11]; [25]", "value": 20}, {"measurement": "Plant response rating, Ducksalad", "setting": "[12]; [22]", "value": 0}, {"measurement": "Plant response rating, Ducksalad", "setting": "[12]; [23]", "value": 0}, {"measurement": "Plant response rating, Ducksalad", "setting": "[12]; [24]", "value": 75}, {"measurement": "Plant response rating, Ducksalad", "setting": "[12]; [25]", "value": 0}, {"measurement": "Plant response rating, Rice", "setting": "[13]; [22]", "value": 0}, {"measurement": "Plant response rating, Rice", "setting": "[13]; [23]", "value": 45}, {"measurement": "Plant response rating, Rice", "setting": "[13]; [24]", "value": 45}, {"measurement": "Plant response rating, Rice", "setting": "[13]; [25]", "value": 0}, {"measurement": "Plant response rating, Sedge, Umbrella", "setting": "[14]; [22]", "value": 0}, {"measurement": "Plant response rating, Sedge, Umbrella", "setting": "[14]; [23]", "value": 0}, {"measurement": "Plant response rating, Sedge, Umbrella", "setting": "[14]; [24]", "value": 65}, {"measurement": "Plant response rating, Sedge, Umbrella", "setting": "[14]; [25]", "value": 0}]}]}
